Patent publication US10758467B2, “Highly substantive water-soluble UV absorbers and process for preparation thereof” (GALAXY SURFACTANTS LTD., priority 2018, dated 2020)

Experiments:
[1] = UV absorption (molar extinction coefficient); type: physicochemical
[2] = system: Propionibacterium acnesMTCC 1951; test: Minimum growth inhibitory concentration; type: cell-based, Propionibacterium acnes
Excerpt: (§1) The doubly quaternized UV absorbers of Formula I (R═C8H17 to C22H45) according to the invention show decent antimicrobial properties. The minimum growth inhibitory concentrations against G +ve, G −ve bacteria and against the yeast for two compounds of Formula I of Example 3 and Example 4 are given in the Table III. This antimicrobial property is useful for preservation of personal care formulations. The antimicrobial activity against dandruff causing microorganism, Malassezia furfur is useful for hair care applications.

[3] = system: Candida albicans ATCC 10231; test: Minimum growth inhibitory concentration; type: cell-based
Excerpt: as §1

[4] = system: Malassezia furfur MTCC 1374; test: Minimum growth inhibitory concentration; type: cell-based
Excerpt: as §1

[5] = system: Pseudomonas aeruginosa Immune type IV; test: Minimum growth inhibitory concentration; type: cell-based
Excerpt: as §1

[6] = system: Staphylococcus aureus ATCC6538; test: Minimum growth inhibitory concentration; type: cell-based
Excerpt: as §1

[7] = system: Escherichia coli ATCC 10142; test: Minimum growth inhibitory concentration; type: cell-based
Excerpt: as §1

[8] = Zeta potential (Zetasizer Nano, Malvern) and charge density; type: physicochemical; conditions: for Zeta potential: 1% dispersion
Excerpt: Zeta potential of 1% dispersion of doubly quaternized UV absorber, Formula I, R═C18H37 and R1═OCH3 is found to be […] (Zetasizer Nano, Malvern). […] Also the high zeta potential (+46 mV) ensures the stability of colloidal formulations.
Molar extinction coefficient, ∈, in water: 19,700 mol^−1cm^−1 at 307 nm. Zeta potential: +46 mV, Charge density: 0.3066 meq/gram

[9] = Surface-active properties (surface tension of water, CMC); type: physicochemical
Protocol: They reduce the surface tension of water from 72 Mn/m to 35 Mn/m at 1.0% concentration, at 30° C. These quaternized UV absorbers behave like cationic surface active agents and can be easily titrated against an anionic surfactant as a standard for two-phase titration for the determination of active matter.
Critical micelle concentration at 25° C. is 2.29×10^−3 mM

Structure (SMILES) | minimum growth inhibitory concentration [2] | minimum growth inhibitory concentration [3] | minimum growth inhibitory concentration [4] | minimum growth inhibitory concentration [5] | minimum growth inhibitory concentration [6] | minimum growth inhibitory concentration [7] | other results
COc1ccc(C=CC(=O)NCCCN(C)C)cc1 [Example 1, p-methoxycinnamido propyldimethylamine] |  |  |  |  |  |  | Molar extinction coefficient, ∈ ([1]; in methanol, at 290 nm): 24,224
CCCCCCCCCCCC[N+](C)(C)CC(O)C[N+](C)(C)CCCNC(=O)C=Cc1ccc(OC)cc1.[Cl-].[Cl-] (stereo not shown) [Example 3, p-methoxy cinnamidopropyl (2-hydroxypropyl lauryl dimethyl ammonium chloride) dimonium chloride] | 0.5% | 0.3% | 0.5% | 0.4% | 0.3% | 0.4% | Molar extinction coefficient, ∈ ([1]; in water, at 305 nm): 19,500 mol^−1cm^−1
COc1ccc(C=CC(=O)NCCC[N+](C)(C)CC(O)C[N+](C)(C)C)cc1.[Cl-].[Cl-] (stereo not shown) [Example 2, p-methoxy cinnamidopropyl (2-hydroxypropyl trimethyl ammonium chloride) dimonium chloride] |  |  |  |  |  |  | Molar extinction coefficient, ∈ ([1]; in water, at 290 nm): 22,000 mol^−1cm^−1
CCCCCCCCCCCCCCCCCC[N+](C)(C)CC(O)C[N+](C)(C)CCCNC(=O)/C=C/c1ccc(OC)cc1 (stereo not shown) [Example 4, p-methoxy cinnamidopropyl (2-hydroxypropyl stearyl dimethyl ammonium chloride) dimonium chloride] | 0.4% | 0.3% | 0.6% | 0.4% | 0.2% | 0.3% | Molar extinction coefficient, ∈ ([1]; in water, at 307 nm): 19,700 mol^−1cm^−1; Charge density [8]: 0.3066 meq/gram; Zeta potential [8]: +46 mV; Zeta potential ([8]; listed as Formula I, R═C18H37 and R1═OCH3): +47 mV; Surface effectiveness [9]: 34.2 mN/m; surface efficiency (−log C20) [9]: 6.23; Critical micelle concentration ([9]; at 25° C.): 0.00229 mM
